We go through 23 compounds from US8969375B2, “CDK9 kinase inhibitors” (AbbVie Inc., priority 2013, dated 2015).

As a reminder, the pIC50 is the IC50 on a negative log10 scale, so that one unit is a factor of ten. Low values mean a high IC50, high ones a low IC50. In general, pEC50 refers to the negative decadic logarithm of the EC50, by convention in mol/L. Lower therefore signals a large EC50.

Structures are written as SMILES. pEC50, pIC50: −log10 of the molar value.

The target of one experiment is T1, CDK9/Cyclin T1 (Homo sapiens, UniProt P50750).
T1 construct: purchased Carna Biosciences 04-110
Briefly: CDK9 enzyme activity, LANCE ULight TR-FRET kinase assay. Conditions: 1000 μM ATP, 4 nM CDK9/Cyclin T1, 30 minutes. Type of experiment: biochemical. As for the experimental part:
CDK9 enzyme activities were measured using LANCE ULight TR-FRET kinase assay reagents (PerkinElmer, Waltham, Mass.). Compounds were directly added in 100% DMSO to white low volume assay plates (Perkin Elmer Proxiplate 6008289) using a Labcyte Echo acoustic dispenser. Assay reagents in serine/threonine kinase assay buffer containing 20 mM HEPES, 10 mM MgCl2, 100 mM Na3VO4, and 0.0075% Triton X-100. were added for final reaction mixture concentrations of 1000 μM ATP, 100 nM U-light MBP peptide (Perkin Elmer TRF0109M) and reaction initiated with 4 nM CDK9/Cyclin T1 (Carna Biosciences 04-110). The kinase reaction was carried out for 30 minutes before addition of stopping buffer to a final of 20 mM EDTA and 0.5 nM of LANCE Ultra Europium anti-phospho-MBP antibody (PerkinElmer TRF0201M) in LANCE detection buffer (PerkinElmer CR97-100). The reaction was equilibrated for 1 hour and the signal read in the Perkin Elmer Envision in TR-FRET mode (excitation at 320 nm and emission at 615/665 nm).

The subject of the next experiment is H929 cells. Put plainly: Cell viability assay (Cell TiterGlo), H929 cells. Type of experiment: cell-based, human. Conditions: Homo sapiens, NCI-H929, 24 hours. As for the experimental part: Cell viability assays were performed using A431 or H929 cells. A431 cells were seeded in 96-well plates at 10,000 cells/well, and after overnight incubation, treated with compounds at 2-times the final concentration to result in a dose response of 3-fold dilutions from 10 μM to 0.0005 μM (50 μL/well, 0.1% final DMSO concentration). H929 cells were seeded in 96-well plates at 10,000 cells/well and treated immediately with compounds as described above. After 24 hours at 37° C., cell viability was measured using Cell TiterGlo reagent (Promega) with a luminescence reader. Alternately, cell viability assays were performed in 384-well format. A431 cells were seeded in 384-well plates at 2500 cells/well and, after overnight incubation, treated with compounds in a dose response of 3-fold dilutions from 10 μM to 0.0005 μM ([…], 0.1% final DMSO concentration). For the H929 viability assay, […] of the compounds was dispensed into 384-well plates in a dose response as described above and cells were immediately seeded in 384-well plates at 2500 cells/well. After 24 hours at […], cell viability was measured using Cell TiterGlo reagent (Promega) with a luminescence reader.
Background: Cellular ATP, detected with luciferase, serves as a proxy for viable cell number.

T1 sequence (P50750 whole entry): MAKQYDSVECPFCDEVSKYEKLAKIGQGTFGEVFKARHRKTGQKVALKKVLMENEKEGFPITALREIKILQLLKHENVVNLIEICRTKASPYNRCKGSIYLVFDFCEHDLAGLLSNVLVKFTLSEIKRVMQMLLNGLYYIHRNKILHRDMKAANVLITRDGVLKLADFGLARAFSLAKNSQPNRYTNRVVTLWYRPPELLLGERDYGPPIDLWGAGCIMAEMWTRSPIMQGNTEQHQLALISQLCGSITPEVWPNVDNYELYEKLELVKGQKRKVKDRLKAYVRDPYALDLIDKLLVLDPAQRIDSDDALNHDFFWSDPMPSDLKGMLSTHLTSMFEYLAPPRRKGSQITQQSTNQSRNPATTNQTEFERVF
T1 sequence (O60563 whole entry partner): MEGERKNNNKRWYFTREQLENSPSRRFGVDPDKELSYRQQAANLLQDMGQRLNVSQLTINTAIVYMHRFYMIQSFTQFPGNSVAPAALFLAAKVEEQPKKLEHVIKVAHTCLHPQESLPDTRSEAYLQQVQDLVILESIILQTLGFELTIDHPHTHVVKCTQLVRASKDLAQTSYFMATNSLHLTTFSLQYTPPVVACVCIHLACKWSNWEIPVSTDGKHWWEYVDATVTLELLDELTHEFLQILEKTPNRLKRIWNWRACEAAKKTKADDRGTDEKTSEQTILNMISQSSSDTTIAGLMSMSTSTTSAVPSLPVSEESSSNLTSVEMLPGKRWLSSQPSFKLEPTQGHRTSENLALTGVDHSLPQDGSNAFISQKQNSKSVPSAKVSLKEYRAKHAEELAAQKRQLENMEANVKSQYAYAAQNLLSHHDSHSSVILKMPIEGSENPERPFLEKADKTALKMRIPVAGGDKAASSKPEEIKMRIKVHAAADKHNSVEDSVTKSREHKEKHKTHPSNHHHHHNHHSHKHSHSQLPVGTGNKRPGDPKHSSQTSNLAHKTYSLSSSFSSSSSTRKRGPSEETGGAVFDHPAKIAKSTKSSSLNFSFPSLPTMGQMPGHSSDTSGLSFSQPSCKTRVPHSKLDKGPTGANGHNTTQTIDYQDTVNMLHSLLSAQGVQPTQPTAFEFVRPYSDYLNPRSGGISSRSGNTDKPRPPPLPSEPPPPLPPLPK

Compound `Fc1cccc(CCn2nnc3ccc(-c4ccnc5[nH]c(C6CCNCC6)cc45)cc32)c1` [Example 32, 1-[2-(3-fluorophenyl)ethyl]-6-{2-(piperidin-4-yl)-1H-pyrrolo[2,3-b]pyridin-4-yl}-1H-benzotriazole] gave a negative-log IC50 (pIC50) against CDK9/Cyclin T1 of 7.29. In the experiment on H929 cells, this compound had a pEC50 of 6.05.
Consider `CNC(=O)N1CCC(c2cc3c(-c4cnc5ccn(Cc6cccc(F)c6)c5c4)ccnc3[nH]2)CC1` [Example 45, 4-{4-[1-(3-fluorobenzyl)-1H-pyrrolo[3,2-b]pyridin-6-yl]-1H-pyrrolo[2,3-b]pyridin-2-yl}-N-methylpiperidine-1-carboxamide], for which the negative-log IC50 (pIC50) at CDK9/Cyclin T1 was 7.52. Also, the pEC50 in the experiment on H929 cells was 6.92.
On the same counts, the results for `c1cc(-c2ccc3ccn(CC4CCOCC4)c3n2)c2cc(C3CCNCC3)[nH]c2n1` [Example 44, 2-(piperidin-4-yl)-1′-(tetrahydro-2H-pyran-4-ylmethyl)-1H,1′H-4,6′-bipyrrolo[2,3-b]pyridine] are 7.36 and 5.96.
Taken in the same sequence, the figures for `c1cc(-c2cnc3ccn(CC4CCOCC4)c3c2)c2cc(C3CCNCC3)[nH]c2n1` [Example 30, 6-{2-(piperidin-4-yl)-1H-pyrrolo[2,3-b]pyridin-4-yl}-1-(tetrahydro-2H-pyran-4-ylmethyl)-1H-pyrrolo[3,2-b]pyridine] were 7.07 and 5.20.
In the case of `Fc1cccc(Cn2ccc3ncc(-c4ccnc5[nH]c(C6=CCNCC6)cc45)cc32)c1` [Example 40, 1-(3-fluorobenzyl)-6-[2-(1,2,3,6-tetrahydropyridin-4-yl)-1H-pyrrolo[2,3-b]pyridin-4-yl]-1H-pyrrolo[3,2-b]pyridine], the pIC50 against CDK9/Cyclin T1 is 7.77. This compound also had a pEC50 with H929 cells of 7.28.
Taken in the same sequence, the figures for `O=C(CO)N1CCC(c2cc3c(-c4cc5c(cc4F)ncn5CC4CCOCC4)ccnc3[nH]2)CC1` [Example 21, 1-(4-{4-[5-fluoro-1-(tetrahydro-2H-pyran-4-ylmethyl)-1H-benzimidazol-6-yl}-1H-pyrrolo[2,3-b]pyridin-2-yl]piperidin-1-yl)-2-hydroxyethanone] were 7.00 and 5.73.
On the same counts, the results for `CNC(=O)N1CCC(c2cc3c(-c4cc5c(cc4F)ncn5CC4CCOCC4)ccnc3[nH]2)CC1` [Example 20, 4-{4-[5-fluoro-1-(tetrahydro-2H-pyran-4-ylmethyl)-1H-benzimidazol-6-yl]-1H-pyrrolo[2,3-b]pyridin-2-yl}-N-methylpiperidine-1-carboxamide] are 6.80 and 5.71.
Taken in the same sequence, the figures for `CS(=O)(=O)N1CCC(c2cc3c(-c4ccc5ncn(CC6CCOCC6)c5c4)ccnc3[nH]2)CC1` [Example 6, 6-{2-[1-(methylsulfonyl)piperidin-4-yl]-1H-pyrrolo[2,3-b]pyridin-4-yl}-1-(tetrahydro-2H-pyran-4-ylmethyl)-1H-benzimidazole] were 7.42 and 6.89.
Compound `N#Cc1cn(Cc2ccccc2)c2cc(-c3ncnc4[nH]c(C5=CCN(CC(O)CO)CC5)cc34)ccc12` (stereo not drawn) [Example 31, 1-benzyl-6-{6-[1-(2,3-dihydroxypropyl)-1,2,3,6-tetrahydropyridin-4-yl]-7H-pyrrolo[2,3-d]pyrimidin-4-yl}-1H-indole-3-carbonitrile] gave a negative-log IC50 (pIC50) on CDK9/Cyclin T1 of 7.52.
At CDK9/Cyclin T1, `N#Cc1cn(CC2CCOCC2)c2cc(-c3ccnc4[nH]c(C5CCNCC5)cc34)cnc12` [Example 28, 6-[2-(piperidin-4-yl)-1H-pyrrolo[2,3-b]pyridin-4-yl]-1-(tetrahydro-2H-pyran-4-ylmethyl)-1H-pyrrolo[3,2-b]pyridine-3-carbonitrile] gave a negative logarithm of the IC50 (pIC50) of 6.74. In the experiment on H929 cells, this compound showed a pEC50 of less than 5.00.
Taken in the same sequence, the figures for `N#Cc1cn(Cc2cccc(F)c2)c2cc(-c3ccnc4[nH]c(C5CCNCC5)cc34)c(F)cc12` [Example 42, 5-fluoro-1-(3-fluorobenzyl)-6-[2-(piperidin-4-yl)-1H-pyrrolo[2,3-b]pyridin-4-yl]-1H-indole-3-carbonitrile] were 7.26 and 6.68.
Taken in the same sequence, the figures for `Fc1cncc(Cn2ccc3ccc(-c4ccnc5[nH]c(C6=CCCNC6)cc45)nc32)c1` [Example 56, 1′-[(5-fluoropyridin-3-yl)methyl]-2-(1,2,5,6-tetrahydropyridin-3-yl)-1H,1′H-4,6′-bipyrrolo[2,3-b]pyridine] were 7.54 and 6.60.
On the same counts, the results for `OCC(O)CN1CCC(c2cc3c(-c4cc5c(cc4F)ncn5CC4CCOCC4)ccnc3[nH]2)CC1` (stereo not drawn) [Example 19, 3-(4-{4-[5-fluoro-1-(tetrahydro-2H-pyran-4-ylmethyl)-1H-benzimidazol-6-yl}-1H-pyrrolo[2,3-b]pyridin-2-yl]piperidin-1-yl)propane-1,2-diol] are 7.01 and 5.95.
With `COC(=N)c1cn(Cc2cccc(F)c2)c2cc(-c3ccnc4[nH]c(C5CCNCC5)cc34)c(F)cc12` [Example 41, methyl 5-fluoro-1-(3-fluorobenzyl)-6-[2-(piperidin-4-yl)-1H-pyrrolo[2,3-b]pyridin-4-yl]-1H-indole-3-carboximidate], at CDK9/Cyclin T1, the pIC50 is 7.04. The same compound had a pEC50 in the experiment with H929 cells of 6.23.
Taken in the same sequence, the figures for `C1=C(c2cc3c(-c4ccc5nnn(CC6CCOCC6)c5c4)ccnc3[nH]2)CCNC1` [Example 36, 1-(tetrahydro-2H-pyran-4-ylmethyl)-6-[2-(1,2,3,6-tetrahydropyridin-4-yl)-1H-pyrrolo[2,3-b]pyridin-4-yl]-1H-benzotriazole] were 7.23 and 6.35.
On the same counts, the results for `CS(=O)(=O)N1CCC(c2cc3c(-c4cnc5ccn(CC6CCOCC6)c5c4)ccnc3[nH]2)CC1` [Example 46, 6-{2-[1-(methylsulfonyl)piperidin-4-yl]-1H-pyrrolo[2,3-b]pyridin-4-yl}-1-(tetrahydro-2H-pyran-4-ylmethyl)-1H-pyrrolo[3,2-b]pyridine] are 6.85 and 5.74.
On the same counts, the results for `CS(=O)(=O)N1CCC(c2cc3c(-c4cnc5ccn(Cc6cncc(F)c6)c5c4)ccnc3[nH]2)CC1` [Example 48, 1-[(5-fluoropyridin-3-yl)methyl]-6-{2-[1-(methylsulfonyl)piperidin-4-yl]-1H-pyrrolo[2,3-b]pyridin-4-yl}-1H-pyrrolo[3,2-b]pyridine] are 7.46 and 6.27.
Turning to `Fc1cncc(Cn2ccc3ncc(-c4ccnc5[nH]c(C6=CCNCC6)cc45)cc32)c1` [Example 50, 1-[(5-fluoropyridin-3-yl)methyl]-6-[2-(1,2,3,6-tetrahydropyridin-4-yl)-1H-pyrrolo[2,3-b]pyridin-4-yl]-1H-pyrrolo[3,2-b]pyridine], the negative-log IC50 (pIC50) against CDK9/Cyclin T1 was 7.77. This compound also gave a negative-log EC50 (pEC50) in the experiment on H929 cells of 6.92.
On the same counts, the results for `N#Cc1cn(Cc2cccc(F)c2)c2nc(-c3ccnc4[nH]c(C5CCNCC5)cc34)ccc12` [Example 35, 1′-(3-fluorobenzyl)-2-(piperidin-4-yl)-1H,1′H-4,6′-bipyrrolo[2,3-b]pyridine-3′-carbonitrile] are 7.89 and 6.70.
Taken in the same sequence, the figures for `Fc1cccc(Cn2ccc3ccc(-c4ccnc5[nH]c(C6CCNCC6)cc45)nc32)c1` [Example 43, 1′-(3-fluorobenzyl)-2-(piperidin-4-yl)-1H,1′H-4,6′-bipyrrolo[2,3-b]pyridine] were 7.59 and 6.82.
On the same counts, the results for `CS(=O)(=O)N1CCC(c2cc3c(-c4cc5c(cc4F)ncn5CC4CCOCC4)ccnc3[nH]2)CC1` [Example 23, 5-fluoro-6-{2-[1-(methylsulfonyl)piperidin-4-yl]-1H-pyrrolo[2,3-b]pyridin-4-yl}-1-(tetrahydro-2H-pyran-4-ylmethyl)-1H-benzimidazole] are 7.26 and 6.26.
For the compound `CS(=O)(=O)N1CCC(c2cc3c(-c4ccc5ccn(Cc6cncc(F)c6)c5n4)ccnc3[nH]2)CC1` [Example 53, 1′-[(5-fluoropyridin-3-yl)methyl]-2-[1-(methylsulfonyl)piperidin-4-yl]-1H,1′H-4,6′-bipyrrolo[2,3-b]pyridine], the negative-log IC50 (pIC50) against CDK9/Cyclin T1 was 8.10. Besides, the pEC50 in the experiment on H929 cells is 5.85.
Taken in the same sequence, the figures for `CS(=O)(=O)N1CC=C(c2cc3c(-c4ccc5nnn(CC6CCOCC6)c5c4)ccnc3[nH]2)CC1` [Example 39, 6-{2-[1-(methylsulfonyl)-1,2,3,6-tetrahydropyridin-4-yl]-1H-pyrrolo[2,3-b]pyridin-4-yl}-1-(tetrahydro-2H-pyran-4-ylmethyl)-1H-benzotriazole] were 7.13 and 6.70.
